Source: article PMC12455130, “Multifunctional molecular agent for tau-targeted combinational therapy of Alzheimer’s disease” (The Journal of Biological Chemistry, 2025)

Experiments:
SK-N-SH cells = assay: Intracellular ROS measurement (DCFH, flow cytometry and CLSM); assay type: cell-based, human; conditions: 15 μM R3, 3.8 μM Cu2+, 10 μM compound; for ROS in SK-N-SH cells generated by R3–Cu2+ complex (flow cytometry): 24 h
Procedure: The flow cytometry and confocal laser scanning microscopy (CLSM) were used to show the intracellular ROS production. […] Consequently, the reductive phenolic hydroxyl groups might be a key factor for scavenging ROS triggered by R3–Cu^2+ complex.
SK-N-SH cells were seeded on a 12-well plate at a density of 1 × 10^5/well and incubated at 37 °C for 24 h, followed by treating with 15 μM R3 in the presence or the absence of 3.8 μM Cu^2+ in FBS-free DMEM. Two hours later, 10 μM 4GA/2GA/4ME/GA was added to the medium, respectively. After 24 h, the culture medium was removed, and 10 μM DCFH diacetate in FBS-free DMEM was added and incubated for 45 min at 37 °C. Samples were washed three times with PBS, and 4% polyformaldehyde was added and fixed at room temperature for 20 min. Cells were observed under a CLSM. For quantitative analysis, cells were harvested and washed three times with ice-cold PBS and resuspended in PBS. The fluorescence intensity of DCFH was analyzed by flow cytometry (CytoFLEX LX).

[1] = system: ROS generated by R3 + Cu^2+; assay: ROS in solution, DCFH fluorescent probe; assay type: biochemical
From the text: In this experiment, the fluorescent probe, 2′,7′-dichlorodihydrofluorescein (DCFH), was used to detect the formation of ROS in solution.
Figure 7 The scavenge ability of 4GA and 2GA on ROS.A, time-dependent experiment for monitoring ROS level in solution at different conditions, using the fluorescent probe 2′,7′-dichlorodihydrofluorescein (DCFH). B, ROS levels in SK-N-SH cells treated with different conditions detected by the fluorescent probe of DCFH in flow cytometry. The data were reported as the mean ± SD, n = 3. Statistical analysis was performed using a one-way ANOVA test, ∗p < 0.05, ∗∗p < 0.01, and ∗∗∗p < 0.001 (n = 3). C, confocal laser scanning microscopy (CLSM) analysis of the intracellular ROS level stained with DCFH. Scale bar represents 12.5 μm. 2GA, (4,10-dimethyl-1,4,7,10-tetraazacyclododecane-1,7-diyl)bis((3,4,5-trihydroxyphenyl)methanone); 4GA, (1,4,7,10-tetraazacyclododecane-1,4,7,10-tetrayl)tetrakis((3,4,5-trihydroxyphenyl)methanone); ROS, reactive oxygen species.

[2] = system: tau-infected SK-N-SH cells; assay: Immunofluorescence / ThS staining of intracellular tau aggregation; assay type: cell-based, human; conditions: 1.5 μM R3 aggregates, 10 μM inhibitor; for fluorescence intensity of ThS against the control group: ImageJ
Procedure: The red fluorescence of antitau antibody (Cy3-AB) staining marked for Pan Tau protein. […] Finally, the fluorescence intensity was quantitatively analyzed via ImageJ (National Institutes of Health).
Figure 8 Confocal laser scanning microscopy images of SK-N-SH cells incubated with R3 aggregates and different inhibitors. 2-(4-Amidinophenyl)-6-indolecarbamidine dihydrochloride (DAPI) for nuclei staining (blue); Thioflavin S (ThS) for aggregated Tau protein (green); Cy3 marked anti-Tau antibody (Cy3-AB) for Pan Tau protein (all conformations of Tau) (red). Concentrations of R3 aggregates and inhibitors are 1.5 μM and 10 μM, respectively. Scale bar represents 25 μm.
Tau-infected pathological model cell lines were constructed by human neuroblastoma SK-N-SH cells using R3 aggregates as inducer, referring our earlier article ([28]). R3 aggregates were obtained from coincubation of 15 μM R3 peptide with 3.8 μM heparin in PBS at 37 °C for 4 h. Then, the solution was diluted to 1.5 μM in the culture medium. SK-N-SH cells were seeded onto 24-well plates (1 × 10^5/well) for 24 h. Then, 10 μM of different compounds (inhibitors) per well was added and incubated for 2 h. After changing the culture medium, these cells were treated with 1.5 μM R3 aggregates for 12 h and then further continued incubation for 12 h.
The samples were successively treated with 4% paraformaldehyde and 0.1% Triton X-100 for 15 min each and washed three times with PBS. Blocked with 5% goat serum for 30 min, the samples were incubated with rabbit anti-Tau antibody (1:200 dilution) at 4 °C for 24 h and washed three times with PBS. Then they were incubated with Cy3-conjugated Donkey Anti-Rabbit IgG (1:1000 dilution) at 37 °C for 1 h and washed three times with PBS. Subsequently, 60 μM ThS was added to stain tau aggregates for 15 min and washed three times with PBS. Finally, cells were stained with 2-(4-amidinophenyl)-6-indolecarbamidine dihydrochloride (0.02%) for 5 min to staining nuclei and washed three times with PBS. The antifade mounting medium was used for cell slides to ensure fluorescence. The fluorescence signals were monitored using a CLSM (Leica TCS SP8).
Fig. S16 Quantitatively analysis of the fluorescence intensity in the Confocal laser scanning microscopy images ([…]) of SK-N-SH cells incubated with R3, heparin and different inhibitors by ImageJ software. Florescence intensity per cell (n = 8), analyzed by ImageJ software.

tau peptide R3 = biological target: T1, tau peptide R3 (Homo sapiens, UniProt P10636); assay: ThS assay, Cu2+-promoted heparin-induced R3 aggregation; assay type: biochemical; conditions: R3 15 μM, Cu2+ 3.8 μM, compound 10 μM, heparin 3.8 μM, 3 h
T1 construct: R3 (^306VQIVYK PVDLSK VTSKCG SLGNIH HKPGGG Q^336) and rabbit anti-tau antibody were purchased from MuJin; purchased MuJin
T1 sequence (P10636 623-653 limits assumed): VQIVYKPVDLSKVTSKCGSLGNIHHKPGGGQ
From the text: Metal ions, especially Cu^2+, are believed to be highly compatible with cysteine residues of tau peptide as a coordination center ([26]). Accompanied by the formation of intermolecular S–Cu–S bridging coordination bond, or intermolecular disulfide bond, these metal ions have been proven to promote tau aggregation ([27]). After confirming that 4GA and 2GA can effectively remove copper ions through coordination, we further explore their effects on R3 aggregation under the promotion of Cu^2+. […] Heparin was used to initiate the aggregation ([15]). […] As a comparison, the effects of the precursor compounds: 4ME, 3ME, 2ME, and 1ME, on Cu^2+-promoted R3 aggregation were also examined (Fig. S15).
Figure 5 Kinetic curves and TEM image of R3 aggregation with 4GA or 2GA.A, kinetic curves of the R3 (15 μM) aggregation monitored by ThS fluorescence assay in different conditions. B, ThS fluorescence intensity of R3 (15 μM) incubated for 3 h in different conditions. C, TEM image of R3 fibrils in different conditions. Negatively stained with uranyl acetate. Scale bar represents 200 nm. Final concentrations of R3, Cu^2+, and inhibitors are 15, 3.8, and 10 μM, respectively. All aggregations were initiated by heparin (3.8 μM). 2GA, (4,10-dimethyl-1,4,7,10-tetraazacyclododecane-1,7-diyl)bis((3,4,5-trihydroxyphenyl)methanone); 4GA, (1,4,7,10-tetraazacyclododecane-1,4,7,10-tetrayl)tetrakis((3,4,5-trihydroxyphenyl)methanone); TEM, transmission electron microscopy; ThS, thioflavin S.
The promotion of Cu^2+ on R3 aggregation was also inspected, similar to the aforementioned operation, unless that 3.8 μM Cu^2+ was also included, and using 50 mM Hepes (pH 7.4) as the buffer solution.
Fig. S15 ThS fluorescence intensity of R3 (15 µM) incubated for 3 h. Final concentrations of R3, Cu^2+, and compounds are 15, 3.8 and 10 µM, respectively. All aggregations were initiated by heparin (3.8 µM).

Compound	CLSM green fluorescence (intracellular ROS) (SK-N-SH cells)	ROS in SK-N-SH cells generated by R3–Cu2+ complex (flow cytometry) (SK-N-SH cells)	DCFH fluorescence (ROS) in R3 + Cu2+ solution [1]	intracellular tau aggregation (ThS green fluorescence, CLSM) [2]	fluorescence intensity of ThS against the control group [2] [%]	ThS fluorescence intensity of R3 aggregation in the presence of Cu2+ (tau peptide R3)
CN1CCN(C(=O)c2cc(O)c(O)c(O)c2)CCN(C)CCN(C(=O)c2cc(O)c(O)c(O)c2)CC1 [2GA, (4,10-dimethyl-1,4,7,10-tetraazacyclododecane-1,7-diyl)bis((3,4,5-trihydroxyphenyl)methanone)]	almost disappeared	appreciably decreased, almost to the control level	returning to the level observed in the R3 solution without Cu^2+	the green fluorescence disappeared	4.6	dropped dramatically, to a level lower than the case of R3 aggregation in the absence of Cu^2+
O=C(c1cc(O)c(O)c(O)c1)N1CCN(C(=O)c2cc(O)c(O)c(O)c2)CCN(C(=O)c2cc(O)c(O)c(O)c2)CCN(C(=O)c2cc(O)c(O)c(O)c2)CC1 [4GA, (1,4,7,10-tetraazacyclododecane-1,4,7,10-tetrayl)tetrakis((3,4,5-trihydroxyphenyl)methanone)]	almost disappeared	appreciably decreased, almost to the control level	returning to the level observed in the R3 solution without Cu^2+	the green fluorescence disappeared	3.3	dropped dramatically, to a level lower than the case of R3 aggregation in the absence of Cu^2+
CN1CCN(C)CCN(C)CCN(C)CC1 [4ME, 1,4,7,10-tetramethyl-1,4,7,10-tetraazacyclododecane, reference compound]	–	did not decrease	–	slight inhibitory efficiency	–	only to a level close to the case of R3 aggregation in the absence of Cu^2+
O=C(O)c1cc(O)c(O)c(O)c1 [GA, gallic acid, reference compound]	almost disappeared	appreciably decreased, almost to the control level	could also quench the DCFH fluorescence	slight inhibitory efficiency	–	–
